In assay [1] the test system is H929 multiple myeloma tumour line. Briefly: In vitro cytotoxicity, Microculture Tetrazolium Assay. It is filed as cell-based. The note with it: H929 cells, 48 hours exposure, MTT, read-out: IC50 (μM) MTT H929. The procedure:
The cytotoxicity studies were carried out on the H929 multiple myeloma tumour line.
The cells are distributed onto microplates and exposed to the test compounds for 48 hours.

Assay [2] deals with Mcl-1 protein (UniProtKB primary accession number: Q07820) (Homo sapiens, UniProt Q07820). Briefly: Inhibition of Mcl-1 by fluorescence polarisation, Method 1. Format: binding. The conditions noted are these: read-out: IC50 (M) Mcl-1 FP. The essentials: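 Fluorescence polarisation competition with an 11-point compound dilution series (final DMSO 5%). Mcl-1 protein at 5 nM and fluorescein-labelled ligand at 1 nM (final) in 10 mM HEPES, 150 mM NaCl, 0.05% Tween 20, pH 7.4.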

The mark [3] stands for this setting: fluorescence polarisation test, Method 2 values are underlined in the patent (underlining not visible here).
Setting [4] is: fluorescence polarisation, Method 1, or Method 2.

Read-outs that look alike come from different tables or passages of the source.

Chain of Mcl-1 protein (Q07820 whole entry): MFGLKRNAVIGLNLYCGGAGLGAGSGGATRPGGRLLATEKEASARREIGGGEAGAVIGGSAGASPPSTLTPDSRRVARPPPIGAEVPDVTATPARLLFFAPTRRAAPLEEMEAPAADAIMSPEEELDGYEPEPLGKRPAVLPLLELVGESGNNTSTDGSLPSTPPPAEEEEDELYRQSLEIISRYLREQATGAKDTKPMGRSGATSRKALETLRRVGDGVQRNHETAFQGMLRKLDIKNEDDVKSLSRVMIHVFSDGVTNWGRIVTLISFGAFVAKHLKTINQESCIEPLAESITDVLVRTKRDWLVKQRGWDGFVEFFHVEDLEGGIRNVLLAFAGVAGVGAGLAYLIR

As to `Cc1c(-c2c(-c3ccc(F)o3)sc3ncnc(OC(Cc4ccccc4OCc4cncnc4)C(=O)O)c23)ccc(OCCN2CCN(C)CC2)c1Cl` [Example 190, (2R)-2-{[(5Sa)-5-{3-chloro-2-methyl-4-[2-(4-methylpiperazin-1-yl)ethoxy]phenyl}-6-(5-fluorofuran-2-yl)thieno[2,3-d]pyrimidin-4-yl]oxy}-3-[2-(pyrimidin-5-ylmethoxy)phenyl]propanoic acid], the IC50 was determined as 0.037 µM in assay [1] (Homo sapiens, NCI-H929, 48 h) and 7.5e-09 M in assay [2] (setting [3]).
On to `Cc1c(-c2c(-c3ccc(F)cc3)sc3ncnc(OC(Cc4ccccc4OCc4cnccn4)C(=O)O)c23)ccc(OCC2CCCN2C)c1Cl` [Example 143, (2R)-2-{[(5Sa)-5-{3-chloro-2-methyl-4-[(1-methylpyrrolidin-2-yl)methoxy]phenyl}-6-(4-fluorophenyl)thieno[2,3-d]pyrimidin-4-yl]oxy}-3-[2-(pyrazin-2-ylmethoxy)phenyl]propanoic acid], for which the IC50 came to 1.61 µM in assay [1] (Homo sapiens, NCI-H929, 48 h) and 2.6e-08 M in assay [2] (setting [3]).
As for `COc1nc(C)cc(COc2ccccc2CC(Oc2ncnc3sc(-c4ccc(F)o4)c(-c4ccc(OCCN5CCN(C)CC5)c(Cl)c4C)c23)C(=O)O)n1` [Example 160, (2R)-2-{[(5Sa)-5-{3-chloro-2-methyl-4-[2-(4-methylpiperazin-1-yl)ethoxy]phenyl}-6-(5-fluorofuran-2-yl)thieno[2,3-d]pyrimidin-4-yl]oxy}-3-{2-[(2-methoxy-6-methylpyrimidin-4-yl)methoxy]phenyl}propanoic acid], the concentration for half-maximal inhibition (IC50) was 0.021 µM in assay [1] (Homo sapiens, NCI-H929, 48 h) and 5e-09 M in assay [2] (setting [3]).
With `CC#Cc1sc2ncnc(OC(Cc3ccccc3OCC)C(=O)O)c2c1-c1ccc(OCCN2CCN(C)CC2)c(Cl)c1C` [Example 481, (2R)-2-{[(5Sa)-5-{3-chloro-2-methyl-4-[2-(4-methylpiperazin-1-yl)ethoxy]phenyl}-6-(prop-1-yn-1-yl)thieno[2,3-d]pyrimidin-4-yl]oxy}-3-(2-ethoxyphenyl)propanoic acid], the IC50 in assay [1] (Homo sapiens, NCI-H929, 48 h) was 0.643 µM; in assay [2] (setting [4]), 5.4e-09 M.
`Cc1cnccc1-c1nccc(COc2ccccc2CC(Oc2ncnc3sc(-c4ccc(F)cc4)c(-c4ccc(OCCN(C)C)c(Cl)c4C)c23)C(=O)O)n1` [Example 137, (2R)-2-{[(5Sa)-5-{3-chloro-4-[2-(dimethylamino)ethoxy]-2-methylphenyl}-6-(4-fluorophenyl)thieno[2,3-d]pyrimidin-4-yl]oxy}-3-(2-{[2-(3-methylpyridin-4-yl)pyrimidin-4-yl]methoxy}phenyl)propanoic acid]: the half-inhibitory concentration (IC50) in assay [1] (Homo sapiens, NCI-H929, 48 h) was determined as 0.007 µM; in assay [2] (setting [3]), 5.5e-09 M.
Take `Cc1c(-c2c(-c3cccc(F)c3F)sc3ncnc(OC(Cc4ccccc4OCc4ccnc(C(F)(F)F)n4)C(=O)O)c23)ccc(OCCN2CCN(C)CC2)c1Cl` [Example 705, (2R)-2-{[(5Sa)-5-{3-chloro-2-methyl-4-[2-(4-methylpiperazin-1-yl)ethoxy]phenyl}-6-(2,3-difluorophenyl)thieno[2,3-d]pyrimidin-4-yl]oxy}-3-(2-{[2-(trifluoromethyl)pyrimidin-4-yl]methoxy}phenyl)propanoic acid]: the IC50 in assay [1] (Homo sapiens, NCI-H929, 48 h) was found to be 0.02 µM; in assay [2] (setting [4]), 1.7e-08 M.
On to `COc1ccccc1CC(Oc1ncnc2sc(-c3ccc(C)o3)c(-c3ccc(OCCN4CCN(C)CC4)c(Cl)c3C)c12)C(=O)O` [Example 541, (2R)-2-{[(5Sa)-5-{3-chloro-2-methyl-4-[2-(4-methylpiperazin-1-yl)ethoxy]phenyl}-6-(5-methylfuran-2-yl)thieno[2,3-d]pyrimidin-4-yl]oxy}-3-(2-methoxyphenyl)propanoic acid], for which the IC50 in assay [1] (Homo sapiens, NCI-H929, 48 h) amounted to 0.329 µM; in assay [2] (setting [4]), 2.9e-08 M.
The matching figures for `CCCCn1nccc1COc1ccccc1CC(Oc1ncnc2sc(-c3ccn(C)n3)c(-c3ccc(OCCN4CCN(C)CC4)c(Cl)c3C)c12)C(=O)O` [Example 610, (2R)-3-{2-[(1-butyl-1H-pyrazol-5-yl)methoxy]phenyl}-2-{[(5Sa)-5-{3-chloro-2-methyl-4-[2-(4-methylpiperazin-1-yl)ethoxy]phenyl}-6-(1-methyl-1H-pyrazol-3-yl)thieno[2,3-d]pyrimidin-4-yl]oxy}propanoic acid]: 0.091 µM and 3.5e-09 M.
For `Cc1c(-c2c(-c3ccc(F)cc3)sc3ncnc(OC(Cc4ccccc4OCC4CCCO4)C(=O)O)c23)ccc(OCC2CCN(C)C2)c1Cl` [Example 649, (2R)-2-{[(5Sa)-5-{3-chloro-2-methyl-4-[(1-methylpyrrolidin-3-yl)methoxy]phenyl}-6-(4-fluorophenyl)thieno[2,3-d]pyrimidin-4-yl]oxy}-3-{2-[(2R)-tetrahydrofuran-2-ylmethoxy]phenyl}propanoic acid], the IC50 in assay [1] (Homo sapiens, NCI-H929, 48 h) is 0.341 µM; in assay [2] (setting [4]), 2.3e-08 M.
`Cc1c(-c2c(-c3ccco3)sc3ncnc(OC(Cc4ccccc4OCc4ccnc(C(F)(F)F)n4)C(=O)O)c23)ccc(OCCN2CCN(C)CC2)c1Cl` [Example 248, (2R)-2-{[(5Sa)-5-{3-chloro-2-methyl-4-[2-(4-methylpiperazin-1-yl)ethoxy]phenyl}-6-(furan-2-yl)thieno[2,3-d]pyrimidin-4-yl]oxy}-3-(2-{[2-(trifluoromethyl)pyrimidin-4-yl]methoxy}phenyl)propanoic acid]: the IC50 in assay [1] (Homo sapiens, NCI-H929, 48 h) is 0.015 µM; in assay [2] (setting [3]), 6.9e-09 M.
For `Cc1cc(-c2nccc(COc3ccccc3C[C@@H](Oc3ncnc4sc(-c5ccc(F)cc5)c(-c5ccc(OCCN6CCN(C)CC6)c(Cl)c5C)c34)C(=O)O)n2)cnc1C` [Example 732, (2R)-2-{[(5Sa)-5-{3-chloro-2-methyl-4-[2-(4-methylpiperazin-1-yl)ethoxy]phenyl}-6-(4-fluorophenyl)thieno[2,3-d]pyrimidin-4-yl]oxy}-3-(2-{[2-(5,6-dimethylpyridin-3-yl)pyrimidin-4-yl]methoxy}phenyl)propanoic acid], the IC50 in assay [1] came to 0.013 µM; in assay [2] (setting [4]), 1.27e-09 M.
Turning to `Cc1c(-c2c(-c3ccco3)sc3ncnc(OC(Cc4ccccc4OCc4ccnn4C)C(=O)O)c23)ccc(OCCN(C)C)c1Cl` [Example 668, (2R)-2-{[(5Sa)-5-{3-chloro-4-[2-(dimethylamino)ethoxy]-2-methylphenyl}-6-(furan-2-yl)thieno[2,3-d]pyrimidin-4-yl]oxy}-3-{2-[(1-methyl-1H-pyrazol-5-yl)methoxy]phenyl}propanoic acid], the IC50 stood at 0.13 µM in assay [1] (Homo sapiens, NCI-H929, 48 h) and 1.1e-08 M in assay [2] (setting [4]).
In the case of `Cc1c(-c2c(-c3ccc(F)o3)sc3ncnc(OC(Cc4ccccc4OCc4cccc(C(F)(F)F)n4)C(=O)O)c23)ccc(OCCN2CCN(C)CC2)c1Cl` [Example 164, (2R)-2-{[(5Sa)-5-{3-chloro-2-methyl-4-[2-(4-methylpiperazin-1-yl)ethoxy]phenyl}-6-(5-fluorofuran-2-yl)thieno[2,3-d]pyrimidin-4-yl]oxy}-3-(2-{[6-(trifluoromethyl)pyridin-2-yl]methoxy}phenyl)propanoic acid], the IC50 in assay [1] (Homo sapiens, NCI-H929, 48 h) worked out at 0.046 µM; in assay [2] (setting [3]), 8.2e-09 M.
Regarding `COCCCn1nncc1COc1ccccc1CC(Oc1ncnc2sc(-c3ccc(F)cc3)c(-c3ccc(OCCN4CCN(C)CC4)c(Cl)c3C)c12)C(=O)O` [Example 96, (2R)-2-{[(5Sa)-5-{3-chloro-2-methyl-4-[2-(4-methylpiperazin-1-yl)ethoxy]phenyl}-6-(4-fluorophenyl)thieno[2,3-d]pyrimidin-4-yl]oxy}-3-(2-{[1-(3-methoxypropyl)-1H-1,2,3-triazol-5-yl]methoxy}phenyl)propanoic acid], the IC50 in assay [1] (Homo sapiens, NCI-H929, 48 h) came out at 0.034 µM; in assay [2] (setting [3]) it was 3.8e-09 M.

Usually IC50 stands for the concentration needed to halve the response being measured.
